We go through six molecules from publication PMC10934024, “Protein–Ligand Binding and Structural Modelling Studies of Pheromone-Binding Protein-like Sol g 2.1 from Solenopsis geminata Fire Ant Venom” (Molecules, 2024).

One assay relates to Sol i 2. The conditions noted are these: cited from earlier work.
For assay [1], the target named is T1, rSol g 2.1 protein (Solenopsis geminata, UniProt A0A9E7V488).
T1 sequence (A0A9E7V488 1-119): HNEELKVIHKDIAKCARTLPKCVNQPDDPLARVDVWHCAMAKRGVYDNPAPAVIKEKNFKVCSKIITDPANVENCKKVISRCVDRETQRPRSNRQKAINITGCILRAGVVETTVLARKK
Kind of assay: Fluorescence binding assay, NPN titration into rSol g 2.1. How it is done: The fluorescence binding assay of rSol g 2.1 protein was conducted using the fluorescent probe N-phenyl-1-naphtylamine (NPN). […] The fluorescence intensity was measured on a PTI QuantaMaster fluorometer (Horiba Ltd., Kyoto, Japan) with a 337 nm excitation wavelength and emission scan ranging from 300–500 nm at room temperature in triplicate. To obtain the equilibrium dissociation (Kd) value, the fluorescence intensity at the maximal emission wavelength 400 nm was plotted for each NPN concentration. Data were fitted to a specific allosteric binding model using GraphPad Prism Version 9.0 (GraphPad Software, San Diego, CA, USA). Y = Bmax × X^h/(Kd^h + X^h) was used as an equation in the fitting model, where Bmax is the maximal specific binding in the same unit as Y, X is the NPN concentration (µM), and Y is the fluorescence intensity counts/second. Moreover, h is the Hill slope, which is 1.0 for cases with one site. If there is more than one binding site per protein and there is cooperativity, then h > 1.0, and the graph takes on a sigmoidal appearance.

The target of assay [2] is T1, rSol g 2.1 protein. Kind of assay: Fluorescence competitive binding assay (NPN displacement). The conditions noted are these: 2 µM rSol g 2.1 with 4 µM NPN, ligand 0-4 µM, 50 mM Tris-HCl pH 7.4. How it is done:
The binding of the endogenous ligands, including decane, undecane dodecane, and tridecane, to rSol g 2.1 protein was measured by a competitive binding assay. In this procedure, 1 mL of rSol g 2.1 protein (2 µM) in 50 mM Tris-HCl (pH 7.4) containing NPN (4 µM) was titrated with each ligand (1 mM in methanol stock) to the final concentrations of 0, 0.125, 0.375, 0.625, 0.875, 1.125, 2, 3, and 4 µM. Additionally, the same concentrations of the blended ligands, which consisted of decane (45%), undecane (36%), dodecane (15%), and tridecane (4%), were used to investigate the blend effect of Sol g 2.1 protein. The resulting isotherms were fitted (GraphPad Prism 9) to both a one-site model and an allosteric model.

In general, Kd refers to the equilibrium constant for the complex coming apart.

As to `C=CC(=C)CC/C=C(\C)CCC=C(C)C` [(E)-β-farnesene], the binding affinity entry with Sol i 2 is listed as “high binding affinity”.

`c1ccc(Nc2cccc3ccccc23)cc1` [NPN, N-phenyl-1-naphtylamine] returned a Kd at rSol g 2.1 protein [1] (2 µM rSol g 2.1, 50 mM Tris-HCl pH 7.4, NPN 0-12 µM, emission 400 nm, specific binding with Hill slope model) of 1900 ± 80 nM. The “h slope (Hill slope)” value on rSol g 2.1 protein [1] (same fit as Kd of NPN) worked out at 1.64 ± 0.12.

Regarding `CCCCCCCCCC` [decane, Decane], the binding affinity entry in the assay on Sol i 2 is reported as “high binding affinity”. Further, binding on rSol g 2.1 protein [2] was characterised by a dissociation constant (Kd) of 320 nM.

Turning to `CCCCCCCCCCCC` [dodecane, Dodecane], at rSol g 2.1 protein [2], the Kd was found to be 390 nM.

Turning to `CCCCCCCCCCCCC` [tridecane, Tridecane], the Kd on rSol g 2.1 protein [2] worked out at 380 nM.

Take `CCCCCCCCCCC` [undecane, Undecane]: the binding affinity result in the assay with Sol i 2 is given as “high binding affinity”. Binding at rSol g 2.1 protein [2] was put at a Kd of 330 nM.
